Here are results for one compound from patent publication US20190085289A1, “COMPOSITIONS AND METHODS FOR PATHOGEN INACTIVATION OF PLATELETS” (Cerus Corporation, priority 2017, published 2019).

The structures appear in SMILES notation.

This series in a line: Stability and photoconversion of S-59 in 65% PAS/35% plasma with platelets (HPLC). The series is classed as physicochemical. Conditions: for S-59 UV peak area (HPLC) / S-59 concentration (HPLC): 150 μM in 65% InterSol PAS/35% plasma with platelets. The procedure: A further study evaluated stability and photoconversion of amotosalen (S-59) in PAS with added plasma, and also containing platelets. S-59 was added at a concentration of 150 μM to 65% InterSol® PAS and 35% plasma a suspended preparation of platelets, and the admixture maintained in a platelet incubator during the study time course. Samples were removed for HPLC analysis at times 0, 5, 21, 29 and 48 hours, and the mixture was then treated with ˜3 J of UVA light at 55 hours with a post-UVA sample also analyzed by HPLC for both S-59 and photoproducts. […] Peak D and Peak E photoproducts were not detected (Table 3).

Turning to `Cc1oc2c(C)c3oc(=O)cc(C)c3cc2c1COCCN` [S-59, 3-(2-aminoethoxymethyl)-2,5,9-trimethylfuro[3,2-g]chromen-7-one], the “S-59 UV peak area (HPLC)” value came out at 1738.331 (platelet incubator, 5 hr); 1739.214 (platelet incubator, 21 hr); 1725.882 (platelet incubator, 29 hr); 1750.513 (platelet incubator, 48 hr); 1752.513 (platelet incubator, T 0); 274.897 (55 hr post-UVA (~3 J UVA)). In addition, the “S-59 concentration (HPLC)” value (platelet incubator, 5 hr) stood at 149.30 µM; the “S-59 concentration (HPLC)” value (platelet incubator, 21 hr) came out at 147.81 µM; the “S-59 concentration (HPLC)” value (platelet incubator, 29 hr) turned out to be 148.04 µM; the “S-59 concentration (HPLC)” value (platelet incubator, 48 hr) was determined as 148.06 µM; the “S-59 concentration (HPLC)” value (platelet incubator, T 0) was 148.12 µM; the “S-59 concentration (HPLC)” value (55 hr post-UVA (~3 J UVA)) amounted to 22.71 µM. Besides, for the setting “150 μM, 55 hour incubation in PAS/plasma with platelets, then ~3 J UVA”, the “S-59 remaining in the post-UVA samples” value is recorded as 15.3%. Besides, the “loss of S-59” value (PAS/plasma/platelets admixture, prior to the UVA treatment at 55 hours) is recorded as “no loss”.
